According to article PMC5743546 (Biochemistry, 2017):
Read-outs that look alike come from different tables or passages of the source. Each block holds one molecule with its values, some of them ahead of it.

Tests used:
CYP2J2 [1] = molecular target: T1, CYP2J2 (Homo sapiens, UniProt P51589); experiment: biochemical; conditions: for y0 (residual rate of AA epoxidation at maximum inhibition): fit to eq S1
T1 sequence (P51589 1-502): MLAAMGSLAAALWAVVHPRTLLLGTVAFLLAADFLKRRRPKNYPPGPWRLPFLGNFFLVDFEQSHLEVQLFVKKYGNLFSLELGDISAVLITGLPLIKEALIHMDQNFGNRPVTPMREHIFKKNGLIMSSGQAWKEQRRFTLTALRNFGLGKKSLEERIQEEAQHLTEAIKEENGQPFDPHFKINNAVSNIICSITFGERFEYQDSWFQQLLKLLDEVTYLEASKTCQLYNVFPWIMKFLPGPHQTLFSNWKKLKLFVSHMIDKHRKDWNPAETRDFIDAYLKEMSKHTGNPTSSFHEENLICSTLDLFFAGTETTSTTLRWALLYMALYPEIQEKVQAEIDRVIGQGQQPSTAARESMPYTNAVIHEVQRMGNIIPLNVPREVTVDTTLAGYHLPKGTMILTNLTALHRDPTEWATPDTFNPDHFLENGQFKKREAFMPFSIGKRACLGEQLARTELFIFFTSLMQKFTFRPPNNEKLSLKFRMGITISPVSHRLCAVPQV

CYP2J2 [2] = molecular target: T1, CYP2J2; format: binding
CYP2J2 [3] = molecular target: T1, CYP2J2
CYP2J2 [4] = molecular target: T1, CYP2J2; remark: listed apart in the source
CYP2J2 [5] = molecular target: T1, CYP2J2; experiment: CYP2J2-mediated ebastine; format: biochemical
[6] = cited from earlier work
CYP2J2 [7] = molecular target: T1, CYP2J2; experiment: DOX metabolism kinetics by CPR and CYP2J2; conditions: none detected by LC-MS/MS analysis
[8] = substrate: COc1cccc2c1C(=O)c1c(O)c3c(c(O)c1C2=O)C[C@@](O)(C(=O)CO)C[C@@H]3O[C@H]1C[C@H](N)[C@H](O)[C@H](C)O1; experiment: purified protein, by the assay type; conditions: other: CPR with CYP2J2; hyperbolic curve

IC50 (CYP2J2 [1]): 27.4 ± 0.03 µM
Ki (CYP2J2 [1]): 15.6 ± 0.02 µM
Molecule: COc1cccc2c1C(=N)c1c(O)c3c(c(O)c1C2=O)C[C@@](O)(C(C)=O)C[C@@H]3O[C@H]1C[C@H](N)[C@H](O)[C@H](C)O1 [5-IDN, 5-iminodaunorubicin]

IC50 (CYP2J2 [1]): 10.2 ± 0.1 µM
Ki (CYP2J2 [1]): 5.78 ± 0.03 µM
Kd (CYP2J2 [2]): 13.1 ± 1.1 µM
NADPH oxidation on addition of CYP2J2 (in words) (CYP2J2 [3]): does not increase
metabolism by CYP2J2 to form new products (in words) (CYP2J2 [4]): does not metabolize
Molecule: COc1cccc2c1C(=O)c1c(O)c3c(c(O)c1C2=O)CC(O)(C(=O)CO)CC3 (stereo not drawn) [7-de-aDOX, 7-deoxydoxorubicin aglycone]

Ki (CYP2J2 [2]): > 200 µM
inhibition of DOX binding to CYP2J2 (in words) (CYP2J2 [2]; 100 μM AA, 1 μM DOX): weakly inhibits
Molecule: CCCCC/C=C\C/C=C\C/C=C\C/C=C\CCCC(=O)O [AA, arachidonic acid]

Molecule: COc1cccc2c1C(=O)c1c(O)c3c(c(O)c1C2=O)C[C@@](O)(C(=O)CO)C[C@@H]3O[C@H]1C[C@H](N)[C@H](O)[C@H](C)O1 [DOX, doxorubicin]
IC50 (CYP2J2 [1]): 5.48 ± 0.04 µM
Ki (CYP2J2 [1]): 3.11 ± 0.02 µM
enzyme activity retained in the presence of saturating amounts (CYP2J2 [1]; 100 μM AA): 23%
y0 (residual rate of AA epoxidation at maximum inhibition) (CYP2J2 [1]; 100 μM AA): 19.8 ± 3.8 pmol (min)^−1 (nmolCYP2J2)^−1
Kd (CYP2J2 [2]): 5.32 ± 0.89 µM
r0 (intrinsic polarization value) (CYP2J2 [2]; 1 μM DOX or 7-de-aDOX, 37°C, with 100 μM AA or 60 μM EBS where indicated): 0.083 ± 0.007
r1 (maximum polarization value) (CYP2J2 [2]; 1 μM DOX or 7-de-aDOX, one-site fit): 0.219 ± 0.010
IC50 (CYP2J2 [5]): 17.9 µM
Ki (CYP2J2 [5]): 8.97 ± 0.01 µM
y0 (residual rate of EBS metabolism) (CYP2J2 [5]; 20 μM EBS, fit to eq S1): 5.87 ± 2.84
plasma levels upon immediate exposure [6]: 1000 to 10000 nM
toxic cumulative dose [6]: ~ 50 μM
metabolism by CYP2J2 to form new products (in words) (CYP2J2 [7]): does not metabolize

Molecule: COc1cccc2c1C(=O)c1c(O)c3c(c(O)c1C2=O)C[C@@](O)(/C(C)=N/NC(=O)c1ccccc1)C[C@@H]3O[C@H]1C[C@H](N)[C@H](O)[C@H](C)O1 [ZRN, zorubicin]
IC50 (CYP2J2 [1]): 6.46 ± 0.03 µM
Ki (CYP2J2 [1]): 3.67 ± 0.02 µM
change in the regioselectivity of AA epoxidation (in words) (CYP2J2 [1]; 100 μM AA, 0–50 μM anthracycline): not a significant change
y0 (residual rate of AA epoxidation at maximum inhibition) (CYP2J2 [1]; 100 μM AA): 18.7 ± 3.5 pmol (min)^−1 (nmolCYP2J2)^−1

B1: CYP2J2 (Homo sapiens) (protein)
chain: MLAAMGSLAAALWAVVHPRTLLLGTVAFLLAADFLKRRRPKNYPPGPWRLPFLGNFFLVDFEQSHLEVQLFVKKYGNLFSLELGDISAVLITGLPLIKEALIHMDQNFGNRPVTPMREHIFKKNGLIMSSGQAWKEQRRFTLTALRNFGLGKKSLEERIQEEAQHLTEAIKEENGQPFDPHFKINNAVSNIICSITFGERFEYQDSWFQQLLKLLDEVTYLEASKTCQLYNVFPWIMKFLPGPHQTLFSNWKKLKLFVSHMIDKHRKDWNPAETRDFIDAYLKEMSKHTGNPTSSFHEENLICSTLDLFFAGTETTSTTLRWALLYMALYPEIQEKVQAEIDRVIGQGQQPSTAARESMPYTNAVIHEVQRMGNIIPLNVPREVTVDTTLAGYHLPKGTMILTNLTALHRDPTEWATPDTFNPDHFLENGQFKKREAFMPFSIGKRACLGEQLARTELFIFFTSLMQKFTFRPPNNEKLSLKFRMGITISPVSHRLCAVPQV
Km [8]: 10.4 ± 1.6 µM
